The values below come from patent publication US7902361B2, “Pyrimidin-4-yl-3, 4-thione compounds and their use in therapy” (Cyclacel Limited, priority 2003, dated 2011).

In one test the target is T1, aurora A (Homo sapiens, UniProt O14965).
T1 sequence (O14965 1-403): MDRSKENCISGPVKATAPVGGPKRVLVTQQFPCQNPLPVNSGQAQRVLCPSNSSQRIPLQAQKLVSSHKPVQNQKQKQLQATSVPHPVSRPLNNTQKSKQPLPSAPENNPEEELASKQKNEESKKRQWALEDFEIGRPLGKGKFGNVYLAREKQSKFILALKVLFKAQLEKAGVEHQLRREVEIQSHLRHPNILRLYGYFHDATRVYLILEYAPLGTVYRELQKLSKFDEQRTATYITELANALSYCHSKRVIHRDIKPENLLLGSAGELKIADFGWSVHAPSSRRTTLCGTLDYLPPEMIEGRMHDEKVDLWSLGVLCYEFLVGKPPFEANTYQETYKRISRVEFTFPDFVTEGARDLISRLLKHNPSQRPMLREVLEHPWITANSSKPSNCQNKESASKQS
Description: Kinase assay aurora A. The class given is biochemical. The conditions noted are these: Ki calculated (Cheng-Prusoff) from experimentally determined IC50 and Km,ATP; read-out: Kinase Inhibition Ki Aurora A. The method in brief: (§1)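 Radiometric assays measured transfer of radioactive phosphate from ATP onto polypeptide substrates, using 2-4 μg recombinant active enzyme in buffer typically containing 25 mM β-glycerophosphate, 20 mM MOPS, 5 mM EGTA, 1 mM DTT and 1 mM Na3VO3 at pH 7.4. Reactions were stopped on ice, filtered on P81 or GF/C plates and washed with orthophosphoric acid. Incorporated radioactivity was scintillation-counted.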

A further test deals with glycogen synthase. The experiment in a line: Glycogen synthase activation in rat myotubes. Type of test: cell-based. The conditions noted are these: for EC50: Myotube; for Max FI (% to LiCl): maximum fold induction normalised to 40 mM LiCl. The protocol:
Rat myotubes were differentiated from L6.G8.C5 myoblasts, which were grown in DMEM, 10% FCS and antibiotics until confluent. The medium was then removed, cells washed with PBS and differentiation medium containing minimal essential media eagles (alpha modified) supplemented with 2% FCS and antibiotics. The cells were cultured for 3-4 days until >90% of cells had formed multinucleated myotubes. The differentiated cells were then used for determination of glycogen synthase activation after treatment with GSK3 inhibitor example compounds.
HEK293 cells, mouse adipocytes or rat myotubes were treated in 10-cm Petri dishes with different concentrations of GSK3 inhibitor example compounds for 90 minutes. At the end of the treatment period the cells were washed and scraped in ice cold PBS buffer supplemented with 20 mM NaF. The cells were pelleted by centrifugation and lysed in 300 μL buffer (50 mM.HEPES pH 7.5, 10 mM EDTA, 100 mM NaF, 5 mM DTT, protease inhibitor cocktail (Sigma)). After incubation for 30 min on ice the samples were cleared by centrifugation. The activity of glycogen synthase was determined in the soluble fraction at two different concentrations of […]—low (0.1 mM) and high (10 mM). The reaction was carried out for 30 min (buffer: 50 mM Tris pH 7.8, 20 mM EDTA, 25 mM NaF, 5 mM DTT). The reaction mixture (total volume of 90 μL) contained 1% glycogen, 0.3 mM UDP-glucose and 0.06 μCi ^14C-UDP-glucose. Reaction was stopped by transfer of 70 μL to a GFC 96-well filter plate, containing 140 μL 100% ethanol and the glycogen was allowed to precipitate for 1 h at 4° C. The wells were washed 2 times with 200 μL 66% ethanol and than allowed to dry. Subsequently, 100 μL of scintillation liquid was added, and plates were sealed and counted in a Packard Topcounter. Glycogen synthase activation was calculated as the ratio between the incorporation of labelled ^14C-UDP-glucose in glycogen at low and high concentration of […] (fractional velocity).
The ability of GSK3 inhibitors to activate glycogen synthase was determined in HEK293 cells, mouse adipocytes and rat myotubed. The compounds tested activated glycogen synthase in all three cellular systems with EC50 values in the sub-micromolar to low micromolar concentration range. Most of them exceeded the stimulation induced by 40 mM LiCl (the highest compound concentration used in the assay was 20 μM).

The next test addresses CDK2/cyclin A (Homo sapiens, UniProt P24941). The experiment in a line: Kinase assay CDK2/cyclin A. The class given is biochemical. The conditions noted are these: Ki calculated (Cheng-Prusoff) from experimentally determined IC50 and Km,ATP; read-out: Kinase Inhibition Ki CDK2 - cyclin A. The procedure, abridged:
as §1

The target of another test is CDK4/cyclin D1 (Homo sapiens, UniProt P11802). Description: Kinase assay CDK4/cyclin D1. The class given is biochemical. The following applies: Ki calculated (Cheng-Prusoff) from experimentally determined IC50 and Km,ATP; read-out: Kinase Inhibition Ki CDK4 - cyclin D1. The procedure, abridged:
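Radiometric filter assays used recombinant kinases or complexes (2-4 μg) with appropriate polypeptide substrates in pH 7.4 β-glycerophosphate/MOPS buffer. Reactions were started with 15 mM MgCl2 and 100 μM ATP containing [γ-32P]-ATP and run at 30° C. Phosphate incorporated into substrate was counted by scintillation after washing.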

What is called Ki is the equilibrium dissociation constant of an inhibitor or competing ligand from its target. The EC50 is the concentration needed to bring the measured effect to its halfway point. Low readings indicate greater potency, high ones weaker potency.

Sequence of CDK4/cyclin D1 (P11802 whole entry, species assumed): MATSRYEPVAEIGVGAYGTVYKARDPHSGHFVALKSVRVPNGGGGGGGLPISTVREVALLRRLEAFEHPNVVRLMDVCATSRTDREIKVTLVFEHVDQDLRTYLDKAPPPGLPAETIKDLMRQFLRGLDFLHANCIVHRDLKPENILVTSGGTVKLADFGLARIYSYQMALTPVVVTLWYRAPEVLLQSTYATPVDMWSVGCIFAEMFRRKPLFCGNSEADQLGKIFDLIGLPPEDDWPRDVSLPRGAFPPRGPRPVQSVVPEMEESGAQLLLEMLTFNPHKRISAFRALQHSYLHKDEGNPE
Sequence of CDK4/cyclin D1 (P24385 whole entry partner, species assumed): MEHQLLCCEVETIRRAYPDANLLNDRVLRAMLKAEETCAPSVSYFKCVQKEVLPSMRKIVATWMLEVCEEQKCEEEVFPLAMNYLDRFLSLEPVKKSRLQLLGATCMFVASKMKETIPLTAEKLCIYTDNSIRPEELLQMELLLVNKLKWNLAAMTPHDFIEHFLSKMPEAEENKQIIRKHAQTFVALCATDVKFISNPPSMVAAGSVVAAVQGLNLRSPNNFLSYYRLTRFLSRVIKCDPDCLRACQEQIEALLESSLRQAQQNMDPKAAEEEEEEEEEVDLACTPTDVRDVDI

For `CC(=O)Nc1cc(Nc2nccc(-c3sc(=O)n(C)c3C)n2)cc(C(F)(F)F)c1` [Compound 64, N-{3-[4-(3,4-Dimethyl-2-oxo-2,3-dihydro-thiazol-5-yl)-pyrimidin-2-ylamino]-5-trifluoromethyl-phenyl}-acetamide], at aurora A, the inhibition constant (Ki) was 0.17 µM. Also, in the test with glycogen synthase, the half-maximal effective concentration (EC50) came to 1.24 ± 0.61 µM and the “Max FI (% to LiCl)” value was 152 % to LiCl.
In the case of `CCNS(=O)(=O)c1cccc(Nc2nccc(-c3sc(=O)n(C)c3C)n2)c1` [Compound 62, 3-[4-(3,4-Dimethyl-2-oxo-2,3-dihydro-thiazol-5-yl)-pyrimidin-2-ylamino]-N-ethyl-benzenesulfonamide], the inhibition constant Ki was 0.61 µM at CDK2/cyclin A, 0.33 µM at CDK4/cyclin D1 and 0.41 µM at aurora A. The EC50 with glycogen synthase worked out at 1.61 ± 0.199 µM. Moreover, the “Max FI (% to LiCl)” value with glycogen synthase is recorded as 130 % to LiCl.
Turning to `Cc1c(-c2ccnc(Nc3cccc(S(=O)(=O)NCCO)c3)n2)sc(=O)n1C` [Compound 75, 3-[4-(3,4-Dimethyl-2-oxo-2,3-dihydro-thiazol-5-yl)-pyrimidin-2-ylamino]-N-(2-hydroxy-ethyl)-benzenesulfonamide], the inhibitory constant (Ki) on CDK2/cyclin A is 0.41 µM; on CDK4/cyclin D1 it was 0.15 µM; on aurora A, 0.25 µM. The concentration for a half-maximal effect (EC50) with glycogen synthase was 8.49 ± 2.48 µM. Moreover, the “Max FI (% to LiCl)” value in the test on glycogen synthase was 157 % to LiCl.
On the same counts, the results for `COCCNS(=O)(=O)c1cccc(Nc2nccc(-c3sc(=O)n(C)c3C)n2)c1` [Compound 67, 3-[4-(3,4-Dimethyl-2-oxo-2,3-dihydro-thiazol-5-yl)-pyrimidin-2-ylamino]-N-(2-methoxy-ethyl)-benzenesulfonamide] are 1.3 µM, 1.4 µM, 0.39 µM, 10.5 ± 0.99 µM and 112 % to LiCl.
With `CNc1cc(Nc2nccc(-c3sc(=O)n(C)c3C)n2)cc(C(F)(F)F)c1` [Compound 76, 3,4-Dimethyl-5-[2-(3-methylamino-5-trifluoromethyl-phenylamino)-pyrimidin-4-yl]-3H-thiazol-2-one], the Ki on aurora A was 0.15 µM.
